Experimental data published in paper PMC4468608, “A distinct p53 target gene set predicts for response to the selective p53–HDM2 inhibitor NVP-CGM097” (eLife, 2015).

Test system: cell lines from the Cancer Cell Line Encyclopedia (CCLE)
Assay: High-throughput cell viability assay, CCLE cell line panel (n = 356)
Assay type: cell-based, human
Procedure: Cell lines were partitioned into sensitive and insensitive groups based on compound potency (IC50). […] All other cell lines were obtained from ATCC (American Type Culture Collection), DSMZ (Deutsche Sammlung von Mikroorganismen und Zellkulturen), and HSRRB (Health Science Research Resources Bank) and cultured in RPMI or Dulbecco's modified Eagle's medium plus 10% FBS (Invitrogen, Carlsbad, CA) at 37°C, 5% CO2.

COc1cc2c(cc1OC(C)C)[C@H](c1ccc(Cl)cc1)N(c1ccc(N(C)C[C@H]3CC[C@H](N4CCNC(=O)C4)CC3)cc1)C(=O)C2 [NVP-CFC218]
Amax (42-MG-BA, TP53 MUT): -30.94%
sensitivity call (42-MG-BA, TP53 MUT): insensitive (Sensitivity call for each compound was applied according to a cut-off of 4 µM for IC50 and -50% for Amax)
share of sensitive cells expressing wild-type p53 (43/47): 91.5%
share of p53 wild-type cell lines scored insensitive (57/100 p53 wild-type cell lines): 57%
number of insensitive cell lines in wider cell line compendium (634 cell lines): 557
number of sensitive cell lines in wider cell line compendium (634 cell lines): 77
Amax (697, TP53 WT): -96.96%
sensitivity call (697, TP53 WT): sensitive (Sensitivity call for each compound was applied according to a cut-off of 4 µM for IC50 and -50% for Amax)
Amax (8505C, TP53 MUT): -28.72%
sensitivity call (8505C, TP53 MUT): insensitive (Sensitivity call for each compound was applied according to a cut-off of 4 µM for IC50 and -50% for Amax)
Amax (AN3 CA, TP53 MUT): 5.06%
sensitivity call (AN3 CA, TP53 MUT): insensitive (Sensitivity call for each compound was applied according to a cut-off of 4 µM for IC50 and -50% for Amax)
Amax (B-CPAP, TP53 MUT): 1.71%
sensitivity call (B-CPAP, TP53 MUT): insensitive (Sensitivity call for each compound was applied according to a cut-off of 4 µM for IC50 and -50% for Amax)
Amax (BEN, TP53 MUT): 0.13%
sensitivity call (BEN, TP53 MUT): insensitive (Sensitivity call for each compound was applied according to a cut-off of 4 µM for IC50 and -50% for Amax)
Amax (BFTC-905, TP53 MUT): 0.25%
sensitivity call (BFTC-905, TP53 MUT): insensitive (Sensitivity call for each compound was applied according to a cut-off of 4 µM for IC50 and -50% for Amax)
Amax (BFTC-909, TP53 MUT): 1.37%
sensitivity call (BFTC-909, TP53 MUT): insensitive (Sensitivity call for each compound was applied according to a cut-off of 4 µM for IC50 and -50% for Amax)
Amax (BT-20, TP53 MUT): 1.40%
sensitivity call (BT-20, TP53 MUT): insensitive (Sensitivity call for each compound was applied according to a cut-off of 4 µM for IC50 and -50% for Amax)
Amax (BT-474, TP53 MUT): -3.44%
sensitivity call (BT-474, TP53 MUT): insensitive (Sensitivity call for each compound was applied according to a cut-off of 4 µM for IC50 and -50% for Amax)
Amax (CAL-12T, TP53 MUT): -18.61%
sensitivity call (CAL-12T, TP53 MUT): insensitive (Sensitivity call for each compound was applied according to a cut-off of 4 µM for IC50 and -50% for Amax)
Amax (CAL-78, TP53 MUT): -1.01%
sensitivity call (CAL-78, TP53 MUT): insensitive (Sensitivity call for each compound was applied according to a cut-off of 4 µM for IC50 and -50% for Amax)
Amax (CHL-1, TP53 MUT): -46.61%
sensitivity call (CHL-1, TP53 MUT): insensitive (Sensitivity call for each compound was applied according to a cut-off of 4 µM for IC50 and -50% for Amax)
Amax (CHP-212, TP53 WT): -71.98%
sensitivity call (CHP-212, TP53 WT): sensitive (Sensitivity call for each compound was applied according to a cut-off of 4 µM for IC50 and -50% for Amax)
Amax (COLO 205, TP53 MUT): -1.62%
sensitivity call (COLO 205, TP53 MUT): insensitive (Sensitivity call for each compound was applied according to a cut-off of 4 µM for IC50 and -50% for Amax)
Amax (COLO 792, TP53 WT): 2.74%
sensitivity call (COLO 792, TP53 WT): insensitive (Sensitivity call for each compound was applied according to a cut-off of 4 µM for IC50 and -50% for Amax)
Amax (COR-L23, TP53 WT): -1.38%
sensitivity call (COR-L23, TP53 WT): insensitive (Sensitivity call for each compound was applied according to a cut-off of 4 µM for IC50 and -50% for Amax)
Amax (Capan-1, TP53 MUT): 30.74%
sensitivity call (Capan-1, TP53 MUT): insensitive (Sensitivity call for each compound was applied according to a cut-off of 4 µM for IC50 and -50% for Amax)
Amax (ChaGo-K-1, TP53 MUT): -18.45%
sensitivity call (ChaGo-K-1, TP53 MUT): insensitive (Sensitivity call for each compound was applied according to a cut-off of 4 µM for IC50 and -50% for Amax)
Amax (DMS 53, TP53 MUT): 9.69%
sensitivity call (DMS 53, TP53 MUT): insensitive (Sensitivity call for each compound was applied according to a cut-off of 4 µM for IC50 and -50% for Amax)
Amax (DU 145, TP53 MUT): -4.91%
sensitivity call (DU 145, TP53 MUT): insensitive (Sensitivity call for each compound was applied according to a cut-off of 4 µM for IC50 and -50% for Amax)
Amax (Daoy, TP53 MUT): 2.94%
sensitivity call (Daoy, TP53 MUT): insensitive (Sensitivity call for each compound was applied according to a cut-off of 4 µM for IC50 and -50% for Amax)
Amax (EB2, TP53 MUT): -5.89%
sensitivity call (EB2, TP53 MUT): insensitive (Sensitivity call for each compound was applied according to a cut-off of 4 µM for IC50 and -50% for Amax)
Amax (EFE-184, TP53 MUT): -2.73%
sensitivity call (EFE-184, TP53 MUT): insensitive (Sensitivity call for each compound was applied according to a cut-off of 4 µM for IC50 and -50% for Amax)
Amax (EFO-21, TP53 MUT): 5.85%
sensitivity call (EFO-21, TP53 MUT): insensitive (Sensitivity call for each compound was applied according to a cut-off of 4 µM for IC50 and -50% for Amax)
Amax (FU-OV-1, TP53 MUT): -2.32%
sensitivity call (FU-OV-1, TP53 MUT): insensitive (Sensitivity call for each compound was applied according to a cut-off of 4 µM for IC50 and -50% for Amax)
Amax (FaDu, TP53 MUT): 8.93%
sensitivity call (FaDu, TP53 MUT): insensitive (Sensitivity call for each compound was applied according to a cut-off of 4 µM for IC50 and -50% for Amax)
Amax (G-401, TP53 WT): -87.03%
sensitivity call (G-401, TP53 WT): sensitive (Sensitivity call for each compound was applied according to a cut-off of 4 µM for IC50 and -50% for Amax)
Amax (GI-1, TP53 MUT): -2.97%
sensitivity call (GI-1, TP53 MUT): insensitive (Sensitivity call for each compound was applied according to a cut-off of 4 µM for IC50 and -50% for Amax)
Amax (GMS-10, TP53 MUT): -4.00%
sensitivity call (GMS-10, TP53 MUT): insensitive (Sensitivity call for each compound was applied according to a cut-off of 4 µM for IC50 and -50% for Amax)
Amax (HCC1806, TP53 MUT): 1.11%
sensitivity call (HCC1806, TP53 MUT): insensitive (Sensitivity call for each compound was applied according to a cut-off of 4 µM for IC50 and -50% for Amax)
Amax (HCC1954, TP53 MUT): -0.81%
sensitivity call (HCC1954, TP53 MUT): insensitive (Sensitivity call for each compound was applied according to a cut-off of 4 µM for IC50 and -50% for Amax)
Amax (HCC-15, TP53 MUT): -21.49%
sensitivity call (HCC-15, TP53 MUT): insensitive (Sensitivity call for each compound was applied according to a cut-off of 4 µM for IC50 and -50% for Amax)
Amax (HCT-15, TP53 MUT): -20.00%
sensitivity call (HCT-15, TP53 MUT): insensitive (Sensitivity call for each compound was applied according to a cut-off of 4 µM for IC50 and -50% for Amax)
Amax (HLF, TP53 MUT): -3.09%
sensitivity call (HLF, TP53 MUT): insensitive (Sensitivity call for each compound was applied according to a cut-off of 4 µM for IC50 and -50% for Amax)
Amax (HMC-1-8, TP53 MUT): -1.67%
sensitivity call (HMC-1-8, TP53 MUT): insensitive (Sensitivity call for each compound was applied according to a cut-off of 4 µM for IC50 and -50% for Amax)
Amax (Hep G2, TP53 WT): -62.73%
sensitivity call (Hep G2, TP53 WT): sensitive (Sensitivity call for each compound was applied according to a cut-off of 4 µM for IC50 and -50% for Amax)
IC50 (Homo sapiens, 8-MG-BA, TP53 MUT): > 8 µM
IC50 (Homo sapiens, 42-MG-BA, TP53 MUT): > 8 µM
IC50 (Homo sapiens, 697, TP53 WT): 1.59 µM
IC50 (Homo sapiens, 769-P, TP53 WT): 3.01 µM
IC50 (Homo sapiens, 786-0, 786-O, TP53 MUT): > 8 µM
IC50 (Homo sapiens, 5637, TP53 MUT): > 8 µM
IC50 (Homo sapiens, 8505C, TP53 MUT): > 8 µM
